Patent US12637423B2, “Aziridinyl functional compound” (priority 2020, dated 2026)

Assays:
[1] = test system: Bscl2-GFP mouse embryonic stem (mES) reporter cell line; assay: ToxTracker assay, Bscl2-GFP DNA damage reporter; assay type: cell-based
Description: (§1) This methodology uses a two step-approach.
(§2) Metabolic was evaluated by addition of S9 liver extract. […] Only GFP expression in intact single cells is determined.

[2] = test system: Rtkn-GFP mouse embryonic stem (mES) reporter cell line; assay: ToxTracker assay, Rtkn-GFP DNA damage reporter; assay type: cell-based
Description: as §1, §2

[3] = test system: biomarkers Bscl2-GFP and Rtkn-GFP in mES reporter cell lines; assay: ToxTracker assay, overall genotoxicity conclusion; assay type: cell-based, mouse; details: Bscl2-GFP and Rtkn-GFP at 10, 25 and 50% cytotoxicity, absence and presence of rat S9
Description: as §1, §2

[4] = with S9 rat liver extract, at 10% cytotoxicity, 3 h exposure, 24 h recovery
[5] = with S9 rat liver extract, at 25% cytotoxicity, 3 h exposure, 24 h recovery
[6] = with S9 rat liver extract, at 50% cytotoxicity, 3 h exposure, 24 h recovery
[7] = without S9 rat liver extract, at 10% cytotoxicity, 24 h exposure
[8] = without S9 rat liver extract, at 25% cytotoxicity, 24 h exposure
[9] = without S9 rat liver extract, at 50% cytotoxicity, 24 h exposure

SMILES: C=CC(=O)OCCOC(=O)NCCCCCCn1c(=O)n(CCCCCCNC(=O)OCCOC(=O)C=C)c(=O)n(CCCCCCNC(=O)OC(C)CN2CC2C)c1=O (stereo not shown) [Compound 1]
- Bscl 2 GFP reporter induction level [1, 4]: 1.2 fold
- Bscl 2 GFP reporter induction level [1, 5]: 1.2 fold
- Bscl 2 GFP reporter induction level [1, 6]: 1.2 fold
- Bscl 2 GFP reporter induction level [1, 7]: 1.0 fold
- Bscl 2 GFP reporter induction level [1, 8]: 1.2 fold
- Bscl 2 GFP reporter induction level [1, 9]: 1.3 fold
- Rtkn GFP reporter induction level [2, 4]: 1.0 fold
- Rtkn GFP reporter induction level [2, 5]: 1.0 fold
- Rtkn GFP reporter induction level [2, 6]: 1.0 fold
- Rtkn GFP reporter induction level [2, 7]: 1.0 fold
- Rtkn GFP reporter induction level [2, 8]: 1.0 fold
- Rtkn GFP reporter induction level [2, 9]: 1.0 fold
- Genotoxicity conclusion (ToxTracker) [3]: non-genotoxic
